According to ChEMBL document CHEMBL4706500, “Identification of dibucaine derivatives as novel potent enterovirus 2C helicase inhibitors: In vitro, in vivo, and combination therapy study” (Eur J Med Chem, 2020):
The source made the active and inactive calls. No cut-off for these calls is given here.

Assays:
RD [1] = experiment: Cytotoxicity against human RD cells infected with Enterovirus A71 assessed as reduction in cell viability measured by CCK-8 assay; format: functional
Enterovirus A71 [2] = experiment: Antiviral activity against Enterovirus A71 infected in human RD cells using HEX-labelled RNA as substrate assessed as inhibition of dsRNA unwinding by measuring accumulation of dsRNA at 0.56 uM treated 8 hpi by gel based flourescence assay; format: functional, organism-based
[3] = Selectivity index, ratio of CC50 for human RD cells infected with Enterovirus A71 to EC50 for Enterovirus A71 infected in human RD cells; format: toxicity, cell-based; details: read-out: Selectivity Index
Enterovirus A71 [4] = experiment: Antiviral activity against Enterovirus A71 infected in human RD cells assessed as inhibition of viral replication measured by CCK-8 assay; format: functional, organism-based; details: Enterovirus A
RD [5] = experiment: Inhibition of 2C ATPase helicase activity in Enterovirus A71 infected in human RD cells measured by gel electrophoresis method; format: cell-based
Enterovirus A71 [6] = experiment: Antiviral activity against Enterovirus A71 infected in African green monkey Vero cells assessed as reduction in viral RNA titer levels at early stage of life cycle at 3.2 uM treated 12 hpi measured upto 8 hrs by time of addition assay; format: functional, organism-based; details: time hrs <=8
Enterovirus A71 [7] = experiment: Antiviral activity against Enterovirus A71 infected in African green monkey vero cells assessed as down regulation of VP1 expression measured after 24 hrs by immunofluorescence assay; format: functional, organism-based
Enterovirus A71 [8] = experiment: Antiviral activity against Enterovirus A71 at early stage of life cycle infected in African green monkey Vero cells assessed as VP1 expression at 3.2 uM treated 12 hpi measured upto 8 hrs by time of addition assay; format: functional, organism-based; details: time hrs <=8
[9] = Toxicity in 14 day suckling KM mouse assessed as changes in weight growth at 6 mg/kg, po bid for 4 successive days measured on day 12 relative to control; format: organism-based; details: in vivo, 288 h, time 12 day
Enterovirus A71 [10] = experiment: Antiviral activity against EV-A71 GZ-C11 infected in KM mouse assessed as decrease in viral infection clinical symptoms administered 6 mg/kg, po bid for 4 days treatment started 6 hrs post infection measured on day 14 relative to control; format: functional, organism-based; details: time 14.0 day
Enterovirus A71 [11] = experiment: Antiviral activity against EV-A71 GZ-C11 infected in KM mouse assessed as improvement in survival rate administered 6 mg/kg, po bid for 4 days starting 6 hrs post infection measured on day 14 (reference value: 30%); format: functional; details: Enterovirus A, 96 h, time 4 day
Enterovirus A71 [12] = experiment: Antiviral activity against EV-A71 GZ-C11 infected in KM mouse assessed as improvement in survival rate administered 4 mg/kg, po bid for 4 days starting 6 hrs post infection measured on day 14 (reference value: 30%); format: functional; details: Enterovirus A, 96 h, time 4 day
Enterovirus A71 [13] = experiment: Antiviral activity against Enterovirus A71 infected in human RD cells assessed as inhibition of viral replication measured after 48 hrs by plaque assay; format: functional, organism-based
Enterovirus A71 [14] = experiment: Antiviral activity against Enterovirus A71 infected in human RD cells assessed as inhibition of VP1 expression measured after 24 hrs by Western blot assay; format: functional, organism-based
Enterovirus A71 [15] = experiment: Antiviral activity against Enterovirus A71 infected in human RD cells using HEX-labelled RNA as substrate assessed as increase in accumulation of 2C at 4.95 uM measured after 8hpi by gel based flourescence assay; format: functional, organism-based
Enterovirus A71 [16] = experiment: Antiviral activity against Enterovirus A71 infected in human RD cells assessed as inhibition of 2C expression measured after 24 hrs by Western blot assay; format: functional, organism-based
Enterovirus A71 [17] = experiment: Antiviral activity against Enterovirus A71 infected in human RD cells using HEX-labelled RNA as substrate assessed as inhibition of dsRNA unwinding by measuring accumulation of dsRNA at 4.95 uM treated 8 hpi by gel based flourescence assay; format: functional, organism-based
Enterovirus A71 [18] = experiment: Antiviral activity against EV-A71 GZ-C11 infected in KM mouse assessed as prevention of death administered in presence of emetine at 6 mg/kg, po; format: functional, organism-based
Enterovirus A71 [19] = experiment: Antiviral activity against Enterovirus A71 at early stage of life cycle infected in human RD cells assessed as VP1 expression at 3.2 uM treated 12 hpi measured upto 8 hrs by time of addition assay; format: functional, organism-based; details: time hrs <=8

SMILES	CC50 (RD [1])	selectivity ratio [3]	EC50 (Enterovirus A71 [4])	further results
CC(C)S(=O)(=O)n1c(N)nc2ccc(/C(=N/O)c3ccccc3)cc21 [ENVIROXIME]	28 µM	200	0.14 µM	Activity (Enterovirus A71 [2]): inactive
CCOc1cc(C(=O)NCCN(CC)CC)c2ccccc2n1	> 106 µM	> 42.7	2.48 µM	–
CCCCOc1cc(C(=O)NCCCN(CC)CC)c2ccccc2n1	–	64	100 µM	–
CCCCOc1cc(C(=O)NCCN(CC)CC)c2ccccc2n1 [DIBUCAINE]	> 97 µM	> 42.7	2.27 µM	–
CCCCOc1cc(C(=O)NCCN2CCCCC2)c2ccccc2n1	93.8 µM	–	1.47 µM	–
CCCOc1cc(C(=O)NCCN(C)C)c2ccccc2n1	> 111 µM	> 70	1.58 µM	–
CCCNC(=O)c1cc(OCCC)nc2ccccc12	–	–	> 100 µM	–
CCCCOc1cc(C(=O)NCCN2CCCC2)c2ccccc2n1	> 97.7 µM	> 64.1	1.53 µM	–
CCCCCOc1cc(C(=O)NCCN(CC)CC)c2ccccc2n1	35 µM	6	5.83 µM	–
CCN(CC)CCNC(=O)c1cc(OC)nc2ccccc12	> 111 µM	> 4	27.7 µM	–
CCOc1cc(C(=O)NCCN(C)C)c2ccccc2n1	116 µM	31.9	3.62 µM	–
CCCCOc1cc(C(=O)NCCN(C)C)c2ccccc2n1	106 µM	85.4	1.24 µM	inhibition (RD [5]): Active; Activity (Enterovirus A71 [6]): Active; Activity (Enterovirus A71 [7]): Active; Activity (Enterovirus A71 [8]): Active; Activity [9]: Non-Toxic; Activity (Enterovirus A71 [10]): Active; survival at 6 mg/kg (Enterovirus A71 [11]): 67%; survival at 4 mg/kg (Enterovirus A71 [12]): 30%; Activity (Enterovirus A71 [13]): Active; Activity (Enterovirus A71 [14]): Active; Activity (Enterovirus A71 [15]): Active; Activity (Enterovirus A71 [16]): Active; Activity (Enterovirus A71 [17]): Active; Activity (Enterovirus A71 [18]): Active; Activity (Enterovirus A71 [19]): Active
CCOc1cc(C(=O)NCC(C)C)c2ccccc2n1	–	–	> 100 µM	–
CC(C)CNC(=O)c1cc(OC(C)C)nc2ccccc12	> 116 µM	> 2	58.2 µM	–
CCCOc1cc(C(=O)NCCN(CC)CC)c2ccccc2n1	> 101 µM	> 42.7	2.37 µM	–
CCCOc1cc(C(=O)NCC(C)C)c2ccccc2n1	87.3 µM	1.5	58.2 µM	–
CCCCCOc1cc(C(=O)NCCN(C)C)c2ccccc2n1	75.9 µM	48	1.58 µM	–
CCCCCCOc1cc(C(=O)NCCN(CC)CC)c2ccccc2n1	33.6 µM	8	4.21 µM	–
CCCCOc1cc(C(=O)NCCCN(C)C)c2ccccc2n1	–	–	100 µM	–
CCCNC(=O)c1cc(OCC)nc2ccccc12	> 70.2 µM	> 34.8	2.02 µM	–
CCCCCCOc1cc(C(=O)NCCN(C)C)c2ccccc2n1	36.4 µM	16	2.27 µM	–
